# Test results published in US20240335499A1, “PEPTIDE HAVING ANTIDIABETIC ACTIVITY AND USE THEREOF” (MEDI&GENE INC., priority 2021, published 2024).
# How the values were obtained:
# [1] = system: obese mouse model; assay: Glucose tolerance in high-fat-diet obese mouse model; type: in vivo, C57BL/6N male mice; conditions: obese mice, 2.5 mg/kg
# Method: 5-week-old C57BL/6N male mice were obtained from Orient Bio, fed a normal diet, and used after an adaptation period of one week. The breeding environment was maintained at 18 to 24° C. and a humidity of 50 to 60%, and the animals were given free access to feed and water during both the adaptation period and the experimental period. After the one-week adaptation period, the mice were induced to become obese through a high-fat diet to induce impaired glucose tolerance.
# The mice in which obesity was induced were divided into a control and an experimental group. All mice were fasted for 12 hours, and PBS and a peptide (No. 1, 7, or 8; 2.5 mg/kg) were administered to the control and the experimental group, respectively. One hour later, a 20% glucose solution was intraperitoneally injected, and blood collected at each time period was analyzed using a blood glucose analyzer.
# [2] = system: S6 (mTOR marker); assay: S6 phosphorylation in L6 skeletal muscle cells (western blotting); type: cell-based; conditions: 100 nM, 1 hour; for phosphorylation of S6 (mTOR marker): FIG. 8
# Method: (§1) L6 skeletal muscle cells were cultured in a 6-well plate and then starved with 0.5% FBS. Thereafter, the cells were treated with an antidiabetic peptide at a concentration of 100 nM for 1 hour, proteins were collected, and then western blotting was performed.
# [3] = system: adipocyte protein 2 (AP2); assay: AP2 gene expression in muscle tissue of db/db mice; type: in vivo, db/db diabetic mouse model; conditions: db/db mice muscle tissue RNA, 2.5 mg/kg intraperitoneally, 8 weeks
# Method: (§2) It was confirmed whether the antidiabetic peptide relieves diabetes mellitus induced by leptin receptor defects. As an animal model, 5-week-old C57BLKS/J-db/db male mice were provided by Central Lab. Animal Inc., fed a normal diet, and used after an adaptation period of one week. The breeding environment was maintained at 18 to 24° C. and a humidity of 50 to 60%, and the animals were given free access to normal feed and water during both the adaptation period and the experimental period. Mice that completed the adaptation period were divided into a control (intraperitoneal injection) and a peptide administration group. PBS and antidiabetic peptides (Nos. 7 and 8; 2.5 mg/kg) were intraperitoneally administered to the control and peptide administration groups, respectively, for a total of 8 weeks.
# (§3) Various tissue examinations were performed on a db/db diabetic mouse model to confirm the efficacy of relieving diabetic complications. First, in order to confirm muscle loss-related effects, RNA was isolated from muscle tissue and the expression levels of muscle loss-related genes were confirmed. […]
# [4] = system: peroxisome proliferator-activated receptor α (PPARα); assay: PPARα gene expression in muscle tissue of db/db mice; type: in vivo, db/db diabetic mouse model; conditions: db/db mice muscle tissue RNA, 2.5 mg/kg intraperitoneally, 8 weeks
# Method: as §2, §3
# [5] = system: CCAAT enhancer binding protein α (C/EBPα); assay: C/EBPα gene expression in muscle tissue of db/db mice; type: in vivo, db/db diabetic mouse model; conditions: db/db mice muscle tissue RNA, 2.5 mg/kg intraperitoneally, 8 weeks
# Method: as §2, §3
# [6] = system: muscle RING Finger-1 (Murf-1); assay: Murf-1 gene expression in muscle tissue of db/db mice; type: in vivo, db/db diabetic mouse model; conditions: db/db mice muscle tissue RNA, 2.5 mg/kg intraperitoneally, 8 weeks
# Method: as §2, §3
# [7] = system: FoxO1; assay: FoxO1 phosphorylation and expression in L6 skeletal muscle cells (western blotting); type: cell-based; conditions: 100 nM, 1 hour
# Method: as §1
# [8] = system: glucose transporter type 4 (GLUT4); assay: GLUT4 translocation to the cell membrane in C2C12 skeletal muscle cells; type: cell-based; conditions: 100 nM, 1 hour, FIG. 3: Nos. 1 to 8 and insulin
# Method: Similarly, in order to further verify the function of promoting glucose metabolism by antidiabetic peptide treatment, the degree of expression of a glucose transporter type 4 (GLUT4) glucose receptor, which plays an important role in glucose uptake, in the cell membrane was measured. It is known that GLUT4 moves from the cytoplasm to the cell membrane to promote sugar metabolism, and thus the expression level thereof increases. To confirm this, C2C12 skeletal muscle cells were starved with 0.5% FBS and then treated with the peptide and insulin, which is a positive control, at a concentration of 100 nM for 1 hour. Cells were fixed with 4% paraformaldehyde, incubated with a GLUT4-specific antibody at 37° C. for 30 minutes, reacted with an o-phenylenediamine (OPD) solution, and absorbance was measured and compared with that of the control.
substance,measurement,setting,value
AGSIREAGGAFGKREQAEEERYFR (listed as Homo sapiens) [No. 7],change in blood sugar over time (GLUAUC) reduced compared to the control,[1]; after baseline correction,31.1%
same,phosphorylation of S6 (mTOR marker),[2],increased
same,AP2 gene expression change,[3],−52.5%
same,PPARα gene expression change,[4],+94.1%
same,C/EBPα gene expression change,[5],−18.6%
same,Murf-1 gene expression change,[6],−90.1%
AQSREQLAALKK (listed as Homo sapiens) [No. 5],"phosphorylation of S6 protein, increase",[2],494%
EQAEEER (listed as Homo sapiens) [No. 2],"phosphorylation of S6 protein, increase",[2],365%
EQAEEERYFR (listed as Homo sapiens) [No. 4],"phosphorylation of S6 protein, increase",[2],224%
REAGGAFGKR (listed as Homo sapiens) [No. 3],phosphorylation of S6 (mTOR marker),[2],increased
VDRGAGSIREAGGAFGKREQAEEERYFR (listed as Homo sapiens) [No. 8],"blood sugar metabolism after glucose injection, baseline corrected, compared to the control","[1]; fasted 12 hours, 20% glucose intraperitoneally one hour later, FIG. 4 left",significantly improving
same,"phosphorylation of S6 protein, increase",[2],414%
same,AP2 gene expression change,[3],−54.7%
same,PPARα gene expression change,[4],+12.9%
same,C/EBPα gene expression change,[5],−45.5%
same,Murf-1 gene expression change,[6],−36.0%
YFR (listed as Homo sapiens) [No. 1],"phosphorylation of S6 protein, increase",[2],188%
same,expression level of total FoxO1,[7],decreased
same,phosphorylation of FoxO1,[7]; FIG. 9: Nos. 1 to 8,increased
YFRAQSREQLAALKKHH (listed as Homo sapiens) [No. 6],phosphorylation of S6 (mTOR marker),[2],increased
insulin,GLUT4 translocation compared to the control,[8],significant GLUT4 translocation
